The test concerns the target Nanoluciferase-BRD9 fusion protein (3×FLAG-NLuc-BRD9) in SYO-1 cells (Homo sapiens (Human), UniProt Q9H8M2). Put plainly: SYO1 BRD9 NanoLuc degradation assay. Format: cell-based. In outline:
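Degradation read as loss of NLuc signal after 6 h compound exposure (1 μM top final, 3-fold steps, 10 points, duplicates) in SYO-1 cells stably carrying 3×FLAG-NLuc-BRD9. Signal normalised between DMSO-treated cells and cells given 1 μM of a known BRD9 degrader.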

Where [1] appears, read: SYO-1 cells expressing 3×FLAG-NLuc-BRD9, 6 hours incubation, top dose 1 μM.

The structures appear in SMILES notation. Some results are limits rather than exact numbers.

Chain of Nanoluciferase-BRD9 fusion protein (3×FLAG-NLuc-BRD9) in SYO-1 cells (Q9H8M2 whole entry, the tested form may be a part): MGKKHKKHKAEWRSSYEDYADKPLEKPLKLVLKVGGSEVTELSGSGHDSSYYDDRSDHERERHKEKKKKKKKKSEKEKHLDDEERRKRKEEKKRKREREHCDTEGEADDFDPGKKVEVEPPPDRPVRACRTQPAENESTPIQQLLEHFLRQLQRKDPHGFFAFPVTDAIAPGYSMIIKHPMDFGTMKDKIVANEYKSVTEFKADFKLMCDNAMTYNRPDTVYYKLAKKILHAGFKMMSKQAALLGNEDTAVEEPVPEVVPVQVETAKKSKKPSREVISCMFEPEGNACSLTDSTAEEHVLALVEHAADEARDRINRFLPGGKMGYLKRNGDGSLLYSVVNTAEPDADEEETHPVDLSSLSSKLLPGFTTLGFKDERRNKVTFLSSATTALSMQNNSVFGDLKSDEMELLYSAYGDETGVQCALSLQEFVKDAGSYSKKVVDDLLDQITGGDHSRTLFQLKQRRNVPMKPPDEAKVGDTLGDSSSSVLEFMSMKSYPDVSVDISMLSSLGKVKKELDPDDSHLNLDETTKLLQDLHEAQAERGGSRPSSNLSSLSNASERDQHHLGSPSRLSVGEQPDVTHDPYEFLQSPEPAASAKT

Consider `[2H]C([2H])([2H])n1cc(-c2cc(OC)c(CN3CCN(CCC4CCN(c5ccc6c(c5)C(=O)N(C5CCC(=O)NC5=O)C6=O)CC4)CC3)c(OC)c2)c2c(c1=O)CN(C(=O)NC)CC2` (centres unmarked) [Compound D45], for which, under setting [1], the IC50 (in general, the concentration that gives 50% inhibition) was less than 10 nM. For `CNC(=O)N1CCc2c(-c3cc(OC)c(CN4CCC(CN5CCC6(CC5)CC(Oc5ccc7c(c5)C(=O)N(C5CCC(=O)NC5=O)C7=O)C6)CC4)c(OC)c3)cn(C)c(=O)c2C1` (centres unmarked) [Compound D253], the IC50 under setting [1] is less than 10 nM. Consider `COc1cc(-c2cn(C)c(=O)c3c2CCN(C(=O)NCCCN2CCC(OCC4CCN(c5ccc6c(c5)C(=O)N(C5CCC(=O)NC5=O)C6=O)CC4)C2)C3)cc(OC)c1CN(C)C` (centres unmarked) [Compound D229], for which the IC50 under setting [1] fell in the range of 10 to 100 nM.

Under setting [1], `CNC(=O)N1CCc2c(-c3cc(OC)c(CN4CCC(CN5CCC6(CC5)CN(c5ccc7c(c5)CN(C5CCC(=O)NC5=O)C7=O)C6)CC4)c(OC)c3)cn(C)c(=O)c2C1` (centres unmarked) [Compound D56] came in with an IC50 of less than 10 nM. `CNC(=O)N1CCc2c(-c3cc(OC)c(CN4CCN(CCC5CCN(c6ccc7c(c6)C(=O)N(C6CCC(=O)NC6=O)C7=O)CC5)C(COC)C4)c(OC)c3)cn(C)c(=O)c2C1` (centres unmarked) [Compound D103]: the IC50 under setting [1] is less than 10 nM. Regarding `CNC(=O)N1CCc2c(-c3cc(OC)c(CN4CC5(CC(N)C5)C4)c(OC)c3)cn(C)c(=O)c2C1` [Compound B22], under setting [1], the 50% inhibitory concentration (IC50) is not below 1000 nM. As to `CNC(=O)N1CCc2c(-c3cc(OC)c(CN4CCC(C(F)(F)CN5CCN(c6ccc7c(c6)C(=O)N(C6CCC(=O)NC6=O)C7=O)CC5)CC4)c(OC)c3)cn(C)c(=O)c2C1` (centres unmarked) [Compound D154], the IC50 under setting [1] was less than 10 nM. `COc1cc(-c2cn(C)c(=O)c3c2CCC(=O)N3)cc(OC)c1CN1CCC(CN2CCC3(CC2)CC(Oc2ccc4c(c2)CN(C2CCC(=O)NC2=O)C4=O)C3)CC1` (centres unmarked) [Compound D354] registered an IC50 (SYO-1 cells, 6 hours, Table 6C) of less than 10 nM. For `COc1cc(-c2cn(C)c(=O)c3c2CCN(C(=O)NCC2CCC4(CCN(c5ccc6c(c5)C(=O)N(C5CCC(=O)NC5=O)C6=O)CC4)O2)C3)cc(OC)c1CN(C)C` (centres unmarked) [Compound D120], under setting [1], the IC50 was 100 to 1000 nM. Where the note is “SYO-1 cells, 6 hours, Table 6C”, `COc1cc(-c2cn(C)c(=O)c3c2COC3)cc(OC)c1CN1CCC2(CC1)CN(c1ccc3c(c1)C(=O)N(C1CCC(=O)NC1=O)C3)C2` (centres unmarked) [Compound D357] had a half-maximal inhibitory concentration (IC50) of less than 10 nM. As to `CNC(=O)N1CCc2c(-c3cc(OC)c(CN4CCN(C(=O)CCCOc5cccc6c5C(=O)N(C5CCC(=O)NC5=O)C6=O)CC4)c(OC)c3)cn(C)c(=O)c2C1` (centres unmarked) [Compound D1, 5-(4-[[4-(4-[[2-(2,6-dioxopiperidin-3-yl)-1,3-dioxoisoindol-4-yl]oxy]butanoyl)piperazin-1-yl]methyl]-3,5-dimethoxyphenyl)-N,7-dimethyl-8-oxo-3,4-dihydro-1H-2,7-naphthyridine-2-carboxamide], the IC50 (SYO-1 cells, 6 hours, Table 6A) was more than 10 nM. As for `COc1cc(-c2cn(C)c(=O)c3c2CCN(C(=O)NCCN2CCC4(CCN(c5ccc6c(c5)C(=O)N(C5CCC(=O)NC5=O)C6=O)C4)C2)C3)cc(OC)c1CN(C)C` (centres unmarked) [Compound D190], the IC50 under setting [1] fell in the range of 100 to 1000 nM. Consider `COc1cc(-c2cn(C)c(=O)c3c2CCN(C(=O)NCC2CC4(CCN(CCCCN5CCN(c6ccc7c(c6)C(=O)N(C6CCC(=O)NC6=O)C7=O)CC5)CC4)O2)C3)cc(OC)c1CN(C)C` (centres unmarked) [Compound D193], for which, under setting [1], the IC50 is not below 1000 nM. `COc1cc(-c2cn(C)c(=O)c3c2COC3)cc(OC)c1CN1CCC2(CC1)CN(c1ccc3c(c1)C(=O)N(C1CCC(=O)NC1=O)C3=O)C2` (centres unmarked) [Compound D358] yielded an IC50 (SYO-1 cells, 6 hours, Table 6C) of less than 10 nM. `COc1cc(-c2cn(C)c(=O)c3c2CCN(C(=O)NCCCN2CC4(CCN4c4ccc5c(c4)C(=O)N(C4CCC(=O)NC4=O)C5=O)C2)C3)cc(OC)c1CN(C)C` (centres unmarked) [Compound D241] displayed an IC50 under setting [1] of 100 to 1000 nM.

In turn, `CNC(=O)N1CCc2c(-c3cc(OC)c(CN4CCN(c5ccc6c(c5)C(=O)N(C5CCC(=O)NC5=O)C6=O)CC4)c(OC)c3)cn(C)c(=O)c2C1` (centres unmarked) [Compound D131] had an IC50 under setting [1] of less than 10 nM.

As to `COc1cc(-c2cn(C)c(=O)c3c2CCN(C(=O)NCCN2CCC4C(C2)CN4c2ccc4c(c2)C(=O)N(C2CCC(=O)NC2=O)C4=O)C3)cc(OC)c1CN(C)C` (centres unmarked) [Compound D187], the IC50 under setting [1] lay in the range of 10 to 100 nM.
